Patent US20080227752A1, “Methods to Inhibit Histone Acetyltransferase Using Glycosaminoglycans” (Trustees of Boston University, priority 2004, published 2008)
“Also recorded” adds a separate entry of the source. One block for each compound: values may come before it.

Experiments:
[1] = molecular target: T1, p300 HAT domain (Homo sapiens, UniProt Q09472); experiment: In vitro HAT activity assay, biotinylated histone H4 peptide substrate, streptavidin capture; format: biochemical; details: for HAT inhibitory activity of modified heparins: 10 ug/ml, p300, H4 peptide (FIG. 9)
T1 construct: 20 U/mL of HAT enzyme (p300 HAT domain; from Upstate); purchased Upstate (Lake Placid, N.Y.)
T1 sequence (Q09472 1287-1663 limits assumed): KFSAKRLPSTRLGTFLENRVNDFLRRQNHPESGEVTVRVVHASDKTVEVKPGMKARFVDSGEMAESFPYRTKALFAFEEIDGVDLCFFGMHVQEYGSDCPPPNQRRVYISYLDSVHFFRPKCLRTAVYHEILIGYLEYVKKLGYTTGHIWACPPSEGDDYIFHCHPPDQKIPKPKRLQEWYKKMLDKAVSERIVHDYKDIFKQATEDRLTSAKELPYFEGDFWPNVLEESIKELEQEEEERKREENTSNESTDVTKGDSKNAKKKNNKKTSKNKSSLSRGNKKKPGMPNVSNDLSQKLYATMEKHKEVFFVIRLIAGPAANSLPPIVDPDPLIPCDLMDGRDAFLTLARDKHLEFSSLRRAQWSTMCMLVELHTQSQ
Method: Biotinylated histone H4 peptide (substrate) is incubated with recombinant HAT enzyme (p300 catalytic domain) and ^3H-Acetyl-CoA, resulting in the covalent transfer of ^3H-acetate to the substrate. The ^3H-acetylated substrate can be extracted using immobilized streptavidin and counted in a scintillation counter. Thus, the amount of ^3H-acetylated substrate is a direct measure of HAT enzyme activity. Additional assays for HAT activity use core histones as the substrate and the ^3H-acetylated histone reaction products were separated from ^3H-Acetyl-CoA by membrane filtration.
Various concentrations of heparin were incubated in the presence of biotinylated histone H4 peptide, recombinant p300 catalytic domain, and [^3H]-acetyl-CoA for 1 hr at 30° C. Immobilized streptavidin was used to sequester the biotinylated substrate and was counted in a scintillation counter. Data presented are means of duplicates ±1 SE and are representative of five separate experiments. The amount of [^3H] associated with the immobilized streptavidin-biotinylated substrate in the absence of HAT enzyme (negative control) was 54.2±12.0.
HAT activity was assessed in vitro as outlined in FIG. 2. In a 1.7 mL microcentrifuge tube, 100 μL of substrate (biotinylated histone H4 peptide in 50 mM Tris, pH 7.4, 1 mM EDTA; from Pierce), 100 μL of a 5 mg/mL BSA solution (in H2O), 10.5 μL of 10×HAT buffer (500 mM Tris, pH 7.4, 10 mM EDTA), 20 U/mL of HAT enzyme (p300 HAT domain; from Upstate), and 1 μCi/mL of [^3H] Acetyl-CoA (Amersham) were mixed together and the reaction was allowed to proceed at 30° C. for 1 hour. Following this incubation, 100 μL of a 1:1 slurry of immobilized streptavidin (Pierce) pre-equilibrated in 1×HAT buffer (50 mM Tris, pH 7.4, 1 mM EDTA) was added and the sample was incubated for 30 min at RT on a rotating platform. After centrifugation at 10,000 g for 4 min, the supernatant containing the excess reactants was removed and the pellet containing the acetylated substrate bound to the immobilized streptavidin was washed 3 times with 500 μL RIPA buffer (50 mM Tris, pH 7.4, 150 mM NaCl, 1 mM EDTA, 1% NP-40, 0.5% SDC, 0.1% SDS). After the final wash, the pellet was resuspended in 500 μL 1×HAT buffer, diluted in EcoLite, and counted in a scintillation counter. Because of sample volume restrictions, reaction volumes were scaled down in some experiments.

[2] = molecular target: T2, pCAF (Homo sapiens, UniProt Q92831); experiment: Core histone acetylation filter binding HAT assay, pCAF; format: biochemical; details: core histones; for inhibitory activity on pCAF HAT: range of concentrations tested; for 50% inhibition (IC50): 30 minutes 30° C
T2 construct: purchased BIOMOL International (Plymouth Meeting, Pa.)
Method: (§1) In the presence of 0.5 μCi [^3H]acetyl Co A, 10 μg core histones was incubated with either 0.5 μg pCAF (filled circles, […]) or 0.83 μg p300 HAT domain (open circles, ∘) and the indicated heparin concentrations for 30 minutes at 30° C. Formation of [^3H]acetylated core histones was determined by vacuum filtration of the samples across a nitrocellulose membrane and quantitated by liquid scintillation counting. The data is expressed as the mean % Control ±SD. Background CPM in samples without added enzyme was 5781.25 while [^3H]acetylated histone CPM in samples without heparin were 16484.5 for the pCAF containing samples and 9960.5 for the p300 HAT domain samples.
10 μg core histones were incubated with 0.5 μg pCAF, 0.5 μCi [^3H]acetyl Co A and the indicated concentrations of chondroitin sulfate (filled circles, […]), dextran (open circles, ∘), D-glucosamine (filled squares, ▪), hyaluronic acid (open squares, □) or keratan sulfate (filled triangles, ▴) for 30 minutes at 30° C. 35 μl aliquots of the reaction mixtures were spotted onto nitrocellulose filter in a dot blot apparatus under vacuum to remove unincorporated [^3H]acetyl Co A. The sample wells and filters were washed with 50 mM tris pH 7.6 and the samples were processed for liquid scintillation counting. The data is expressed as the mean % Control ±SD. 100% is equal to the activity in the absence of any additives.
(§2) 10 μg core histones was incubated with 0.5 μg pCAF, 0.5 μCi [^3H]acetyl Co A and the indicated concentrations of N-Desulfated Heparin (filled circles, […]) or Fully O-Desulfated Heparin (open circles, ∘) for 30 minutes at 30° C. 35 μl aliquots of the reaction mixtures were filtered through a nitrocellulose filter in a Bio Dot Apparatus under vacuum. The wells and filter were washed with 50 mM tris pH 7.6 and the membrane was processed for liquid scintillation counting. The data is expressed as the mean % Control ±SD.
FIGS. 15A and 15B show inhibition of pCAF HAT Activity by elastase generated proteoglycans. FIG. 15A, Proteoglycans (PG) were purified from pulmonary fibroblast elastase supernatants using anion exchange chromatographic methods. Heparan sulfate proteoglycan fragments (HSPGf) were generated by treating the PG fraction with 10 mU/ml chondroitinase ABC and repurifying the fragments by anion exchange chromatography. Core histones (10 μg) were incubated with 0.5 μg pCAF, 0.5 μCi [^3H]acetyl Co A and the indicated concentrations of PG (filled squares, ▪) or HSPGf (open squares, □) for 30 minutes at 30° C. 35 μl aliquots of the reaction mixtures were filtered through a nitrocellulose filter and the membrane was processed for liquid scintillation counting. The data is expressed as the mean % Control ±SD. FIG. 15B, Proteoglycans (PG) were purified from another preparation of pulmonary fibroblast elastase supernatants. Free GAG chains (B-PG) were generated by treating the PG fraction with alkaline borohydride and were recovered by anion exchange methods. Core histones (Core histones (10 μg) were incubated with 0.5 μg pCAF, 0.5 μCi [^3H]acetyl Co A and the indicated concentrations of PG (filled squares, ▪) or B-PG (open squares, □) for 30 minutes at 30° C. 35 μl aliquots of the reaction mixtures were filtered through a nitrocellulose filter and the membrane was processed for liquid scintillation counting. The data is expressed as the mean % Control ±SD.
as §2, with “2-O-Desulfated” for “N-Desulfated”, “([…])” for “(filled circles, […])”, “6-O-Desulfated” for “Fully O-Desulfated”, “(∘)” for “(open circles, ∘)”, “±SD. […]” for “±SD.”

[3] = tested on: histone H3 acetylation in pulmonary fibroblasts; experiment: Histone H3 acetylation in pulmonary fibroblasts by western blot; format: cell-based, neonatal rat; details: 10 μg/ml, 24 h
Method: (§3) Primary neonatal rat fibroblasts and smooth muscle cells were established as described (Foster, J. A. et al., (1990)) and treated with heparin or N-desulfated heparin (10 μg/ml) for 24 h. Total cell extracts (100 μg protein for fibroblasts and 200 μg protein for smooth muscle cells) were generated and subjected to SDS-PAGE followed by electrotransfer to Immobilon membrane. Membranes were incubated with anti-acetylated histone H3 (Upstate) followed by enzyme linked secondary antibody. Bands were visualized with ECL.
Primary cultures of pulmonary fibroblasts were isolated from the lungs of neonatal rats using established protocols (Foster, J. A., et al., (1990) Pulmonary fibroblasts: an in vitro model of emphysema. Regulation of elastin gene expression, J Biol Chem 265, 15544-9). The cells were maintained in Dulbecco's Minimal Essential Medium supplemented with 5% fetal bovine serum, 0.1 mM non-essential amino acid solution, 100 U/ml penicillin and 100 μg/ml streptomycin. The cells were used in second passage for all experiments. Cell number determination was made based upon assay of cellular acid phosphatase levels using a previously established method (Connolly, D. T., et al., (1986) Anal. Biochem. 152, 136-140).
Immobilon membranes were blocked for 1 hour at room temperature with blocking buffer containing 3% milk in tris buffered saline containing 0.1% tween-20 (TBST). […]

[4] = tested on: histone H3 acetylation in aortic smooth muscle cells; experiment: Histone H3 acetylation in aortic smooth muscle cells by western blot; format: cell-based, neonatal rat; details: 10 μg/ml, 24 h
Method: as §3
Immobilon membranes were blocked for 1 hour at room temperature with blocking buffer containing 3% milk in tris buffered saline containing 0.1% tween-20 (TBST). The blots were rinsed twice with TBST prior to incubation with the primary antibody solutions. The blots were incubated with the appropriate antibody dilution for 1 hour at room temperature or overnight at 4° C. The blots were washed with TBST prior to incubation with the appropriate HRP-linked IgG for 1 hour at room temperature. The blots were washed with TBST prior to chemiluminescence exposure.
We also treated another cell type, aortic smooth muscle cells, with heparin to determine if this response was general or specific to the pulmonary cells.

[5] = molecular target: T1, p300 HAT domain; experiment: Core histone acetylation filter binding HAT assay, p300; format: biochemical; details: core histones, 30 minutes 30° C
Method: as §1
Heparin-mediated inhibition of HAT activity was determined using two independent methods. The first assay method used a modified protocol to measure the ability of pCAF or p300 to acetylate a synthetic, biotinylated peptide of histone H3 or H4 in the absence and presence of heparin or its derivatives. Commercially available pCAF or p300 HAT domain were added to an iced reactions mixture containing 3 μg biotinylated Histone H3 or H4 peptide, 50 mM tris pH 7.4, 1 mM EDTA with and without the indicated concentrations of heparin. […] The filter was allowed to air dry and the filters were processed and counted using liquid scintillation methods.

T2 sequence (Q92831 whole entry): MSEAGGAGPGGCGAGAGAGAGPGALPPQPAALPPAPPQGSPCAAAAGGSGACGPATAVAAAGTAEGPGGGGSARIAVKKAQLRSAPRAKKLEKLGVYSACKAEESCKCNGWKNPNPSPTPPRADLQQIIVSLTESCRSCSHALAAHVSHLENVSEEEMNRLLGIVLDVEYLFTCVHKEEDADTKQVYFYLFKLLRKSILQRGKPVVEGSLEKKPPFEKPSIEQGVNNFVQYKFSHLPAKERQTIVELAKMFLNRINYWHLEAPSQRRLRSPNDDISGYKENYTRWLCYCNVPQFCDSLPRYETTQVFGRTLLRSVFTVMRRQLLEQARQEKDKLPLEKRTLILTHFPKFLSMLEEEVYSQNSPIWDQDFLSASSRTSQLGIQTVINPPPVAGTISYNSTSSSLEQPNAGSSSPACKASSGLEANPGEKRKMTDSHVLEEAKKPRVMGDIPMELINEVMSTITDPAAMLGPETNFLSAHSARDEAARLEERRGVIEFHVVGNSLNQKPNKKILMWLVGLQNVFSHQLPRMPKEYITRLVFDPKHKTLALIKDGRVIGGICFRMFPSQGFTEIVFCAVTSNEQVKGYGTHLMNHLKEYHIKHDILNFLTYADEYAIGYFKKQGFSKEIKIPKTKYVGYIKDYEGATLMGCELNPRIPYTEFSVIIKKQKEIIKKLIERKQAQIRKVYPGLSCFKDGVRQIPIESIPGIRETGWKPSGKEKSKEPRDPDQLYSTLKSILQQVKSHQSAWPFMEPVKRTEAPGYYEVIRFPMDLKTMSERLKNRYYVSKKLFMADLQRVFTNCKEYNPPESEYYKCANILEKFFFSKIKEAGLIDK

Compound: 2-O desulfated heparin
HAT inhibitory activity of modified heparins [1]: retained HAT inhibitory activity; also recorded: showed reduced activity when compared to heparin
inhibitory activity on pCAF HAT [2]: did not result in significant loss of function

Compound: 6-O desulfated heparin
HAT inhibitory activity of modified heparins [1]: retained HAT inhibitory activity; also recorded: showed reduced activity when compared to heparin
inhibitory activity on pCAF HAT [2]: did not result in significant loss of function

Compound: CC(=O)N[C@H]1C(O)O[C@H](CO)[C@@H](O)[C@@H]1O (stereo partly drawn) [N-acetyl glucosamine, N-Acetyl-D-glucosamine, reference compound]
inhibitory activity on pCAF HAT [2]: none of the monosaccharides showed any significant inhibitory activity

Compound: N[C@H]1C(O)O[C@H](CO)[C@@H](O)[C@@H]1O (stereo partly drawn) [glucosamine, D-glucosamine, reference compound]
inhibitory activity on pCAF HAT [2]: none of the monosaccharides showed any significant inhibitory activity

Compound: O=C[C@H](O)[C@@H](O)[C@H](O)[C@H](O)C(=O)O [glucuronic acid, reference compound]
inhibitory activity on pCAF HAT [2]: none of the monosaccharides showed any significant inhibitory activity

Compound: N-desulfated heparin
HAT inhibitory activity of modified heparins [1]: nearly eliminated HAT (p300) inhibition
50% inhibition (IC50) [2]: ~20 µg/mL

Compound: keratan sulfate
inhibitory activity on pCAF HAT [2]: showed inhibition

More lines, main results first:

inhibitory activity on pCAF HAT [2]: showed inhibition
Compound: chondroitin sulfate

inhibitory activity on pCAF HAT [2]: did not show any inhibitory activity
Compound: dextran [reference compound]

inhibition of HAT activity ([1]; 34 μg/mL): almost complete inhibition
IC50 ([1]; molecular weight ~15 kD, read-out: IC50 for HAT activity, molar equivalent): ~1100 nM
50% inhibition (IC50) [2]: ~7 µg/mL
50% inhibition (IC50) [5]: ~5 µg/mL
Compound: heparin [reference compound]
level of histone H3 acetylation [3]: reduced histone H3 actetylation slightly
level of histone H3 acetylation [4]: significant reduction of histone H3 acetylation

effectiveness relative to heparin and other GAGs [2]: the least effective
inhibitory activity on pCAF HAT [2]: showed inhibition
Compound: hyaluronic acid
